From patent EP3807270B1, “NOVEL HETEROARYL HETEROCYCLYL COMPOUNDS FOR THE TREATMENT OF AUTOIMMUNE DISEASE” (F. Hoffmann-La Roche AG, priority 2018, dated 2019) come the findings set out here.

Each structure is given as a SMILES string.

The target of the assay is T1, hTLR9 (Homo sapiens, UniProt Q9NR96).
T1 sequence (Q9NR96 26-1032): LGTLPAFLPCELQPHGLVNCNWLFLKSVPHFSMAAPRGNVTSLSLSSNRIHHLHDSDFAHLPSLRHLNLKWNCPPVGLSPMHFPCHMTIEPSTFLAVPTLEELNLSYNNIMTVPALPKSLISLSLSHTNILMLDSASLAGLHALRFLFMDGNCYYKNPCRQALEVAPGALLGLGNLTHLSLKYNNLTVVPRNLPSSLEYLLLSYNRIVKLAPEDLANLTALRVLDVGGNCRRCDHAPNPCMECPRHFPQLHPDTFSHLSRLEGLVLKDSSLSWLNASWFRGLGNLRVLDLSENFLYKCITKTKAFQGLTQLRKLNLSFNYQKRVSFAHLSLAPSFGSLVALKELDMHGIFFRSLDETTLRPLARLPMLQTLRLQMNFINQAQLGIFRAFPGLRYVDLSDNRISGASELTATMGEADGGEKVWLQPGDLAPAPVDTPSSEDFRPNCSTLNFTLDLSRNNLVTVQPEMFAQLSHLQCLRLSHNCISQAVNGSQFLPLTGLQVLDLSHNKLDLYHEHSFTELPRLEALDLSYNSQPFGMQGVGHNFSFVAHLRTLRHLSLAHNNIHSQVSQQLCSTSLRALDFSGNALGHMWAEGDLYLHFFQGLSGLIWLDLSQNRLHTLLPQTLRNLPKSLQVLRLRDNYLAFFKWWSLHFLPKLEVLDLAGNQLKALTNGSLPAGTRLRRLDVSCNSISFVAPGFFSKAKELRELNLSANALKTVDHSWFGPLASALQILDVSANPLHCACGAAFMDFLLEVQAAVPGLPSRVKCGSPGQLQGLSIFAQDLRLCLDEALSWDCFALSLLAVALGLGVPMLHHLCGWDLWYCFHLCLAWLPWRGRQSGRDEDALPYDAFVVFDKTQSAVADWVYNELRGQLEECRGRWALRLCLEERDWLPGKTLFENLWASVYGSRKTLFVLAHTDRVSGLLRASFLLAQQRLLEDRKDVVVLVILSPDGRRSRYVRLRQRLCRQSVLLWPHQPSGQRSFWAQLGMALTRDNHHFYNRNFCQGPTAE
In words: HEK293-Blue-hTLR-9 cells assay (SEAP reporter, ODN2006 stimulation). The following applies: HEK293-Blue-hTLR9 cells, ODN2006, 20 hrs; read-out: HEK/hTLR9 IC50. Also on record: host or cells: HEK293 (HEK-Blue). It counts as cell-based. The text has this: A stable HEK293-Blue-hTLR-9 cell line was purchased from InvivoGen (Cat.#: hkb-htlr9, San Diego, California, USA). These cells were originally designed for studying the stimulation of human TLR9 by monitoring the activation of NF-κB. A SEAP (secreted embryonic alkaline phosphatase) reporter gene was placed under the control of the IFN-β minimal promoter fused to five NF-κB and AP-1-binding sites. The SEAP was induced by activating NF-κB and AP-1 via stimulating HEK-Blue hTLR9 cells with TLR9 ligands. Therefore, the reporter expression was declined by TLR9 antagonist under the stimulation of a ligand, such as ODN2006 (Cat.#: tlrl-2006-1, Invivogen, San Diego, California, USA), for incubation of 20 hrs. The cell culture supernatant SEAP reporter activity was determined using QUANTI-Blue™ kit (Cat.#: rep-qb 1, Invivogen, San Diego, California, USA) at a wavelength of 640 nm, a detection medium that turns purple or blue in the presence of alkaline phosphatase.
HEK293-Blue-hTLR9 cells were incubated at a density of 250,000-450,000 cells/mL in a volume of 170 µL in a 96-well plate in Dulbecco's Modified Eagle's medium (DMEM) containing 4.5 g/L glucose, 50 U/mL penicillin, […], […], 2 mM L-glutamine, 10% (v/v) heat-inactivated fetal bovine serum with addition of 20 µL test compound in a serial dilution in the presence of final DMSO at 1% and 10 µL of 20uM ODN2006 in above DMEM, perform incubation under 37 °C in a CO2 incubator for 20 hrs. Then 20 µL of the supernatant from each well was incubated with 180 µL Quanti-blue substrate solution at 37 °C for 2 hrs and the absorbance was read at 620-655 nm using a spectrophotometer. The signaling pathway that TLR9 activation leads to downstream NF-κB activation has been widely accepted, and therefore similar reporter assay was modified for evaluating TLR9 antagonist.

For `C[C@@H]1CN(c2ccc(C#N)c3ncccc23)C[C@H](CN2CC3(CCN3c3ccc4c(n3)CCNC4)C2)O1` [Example 36, 5-[(2R,6S)-2-methyl-6-[[1-(5,6,7,8-tetrahydro-1,6-naphthyridin-2-yl)-1,6-diazaspiro[3.3]heptan-6-yl]methyl]morpholin-4-yl]quinoline-8-carbonitrile], the IC50 was 0.045 µM.

In the case of `C[C@@H]1CN(c2ccc(C#N)c3ncccc23)C[C@H](CN2CCC(Nc3ccc4c(c3)CNC4)C2)O1` (stereo partly drawn) [Example 38, 5-[(2S,6R)-2-[[3-(isoindolin-5-ylamino)pyrrolidin-1-yl]methyl]-6-methyl-morpholin-4-yl]quinoline-8-carbonitrile], the IC50 came to 0.034 µM. With `C[C@@H]1CN(c2ccc(C#N)c3ncccc23)C[C@H](CN2CCCN(c3ncc4c(n3)CCNC4)CC2)O1` [Example 39, 5-[(2R,6S)-2-methyl-6-[[4-(5,6,7,8-tetrahydropyrido[4,3-d]pyrimidin-2-yl)-1,4-diazepan-1-yl]methyl]morpholin-4-yl]quinoline-8-carbonitrile] the figure was 0.09 µM. The same measure for `C[C@@H]1CN(c2ccc(C#N)c3ncccc23)C[C@H](CN2CCN(c3cnc4c(n3)CNCC4)CC2)O1` [Example 40, 5-[(2R,6S)-2-methyl-6-[[4-(5,6,7,8-tetrahydropyrido[3,4-b]pyrazin-3-yl)piperazin-1-yl]methyl]morpholin-4-yl]quinoline-8-carbonitrile]: 0.123 µM; for `CC1NCc2ncc(N3CCN(C[C@H]4CN(c5ccc(C#N)c6ncccc56)C[C@@H](C)O4)CC3)cc21` (stereo partly drawn) [Example 41, 5-[(2R,6S)-2-methyl-6-[[4-(5-methyl-6,7-dihydro-5H-pyrrolo[3,4-b]pyridin-3-yl)piperazin-1-yl]methyl]morpholin-4-yl]quinoline-8-carbonitrile]: 0.06 µM; for `C[C@@H]1CN(c2ccc(C#N)c3ncccc23)C[C@H](CNC2CN(c3cnc4c(c3)CNC4)C2)O1` [Example 43, 5-[(2S,6R)-2-[[[1-(6,7-dihydro-5H-pyrrolo[3,4-b]pyridin-3-yl)azetidin-3-yl]amino]methyl]-6-methyl-morpholin-4-yl]quinoline-8-carbonitrile]: 0.111 µM.

On to `C[C@@H]1CN(c2ccc(C#N)c3ncccc23)C[C@H](CN2CC3(C2)CN(c2ccc4c(c2)CCNC4)CCO3)O1` [Example 44, 5-[(2R,6S)-2-methyl-6-[[8-(1,2,3,4-tetrahydroisoquinolin-6-yl)-5-oxa-2,8-diazaspiro[3.5]nonan-2-yl]methyl]morpholin-4-yl]quinoline-8-carbonitrile], for which the IC50 amounted to 0.085 µM. The same measure for `C[C@@H]1CN(c2ccc(C#N)c3ncccc23)C[C@H](CN2CC3(C2)CN(c2ccc4c(n2)CNCC4)CCO3)O1` [Example 45, 5-[(2R,6S)-2-methyl-6-[[8-(5,6,7,8-tetrahydro-1,7-naphthyridin-2-yl)-5-oxa-2,8-diazaspiro[3.5]nonan-2-yl]methyl]morpholin-4-yl]quinoline-8-carbonitrile]: 0.113 µM; for `C[C@@H]1CN(c2ccc(C#N)c3ncccc23)C[C@H](CN2CC3(C2)CN(c2cnc4c(c2)CCNC4)CCO3)O1` [Example 46, 5-[(2R,6S)-2-methyl-6-[[8-(5,6,7,8-tetrahydro-1,7-naphthyridin-3-yl)-5-oxa-2,8-diazaspiro[3.5]nonan-2-yl]methyl]morpholin-4-yl]quinoline-8-carbonitrile]: 0.114 µM; for `C[C@@H]1CN(c2ccc(C#N)c3ncccc23)C[C@H](CN2CC3(C2)CN(c2cnc4c(c2)CNCC4)CCO3)O1` [Example 47, 5-[(2R,6S)-2-methyl-6-[[8-(5,6,7,8-tetrahydro-1,6-naphthyridin-3-yl)-5-oxa-2,8-diazaspiro[3.5]nonan-2-yl]methyl]morpholin-4-yl]quinoline-8-carbonitrile]: 0.072 µM. With `C[C@@H]1CN(c2ccc(C#N)c3ncccc23)C[C@H](CN2CC3(C2)CN(c2cc4c(cn2)CCNC4)CCO3)O1` [Example 48, 5-[(2R,6S)-2-methyl-6-[[8-(5,6,7,8-tetrahydro-2,6-naphthyridin-3-yl)-5-oxa-2,8-diazaspiro[3.5]nonan-2-yl]methyl]morpholin-4-yl]quinoline-8-carbonitrile] the figure was 0.056 µM. The same measure for `C[C@@H]1CN(c2ccc(C#N)c3ncccc23)C[C@H](CN2CC3(C2)CN(c2ccc4c(n2)CCNC4)CCO3)O1` [Example 49, 5-[(2R,6S)-2-methyl-6-[[8-(5,6,7,8-tetrahydro-1,6-naphthyridin-2-yl)-5-oxa-2,8-diazaspiro[3.5]nonan-2-yl]methyl]morpholin-4-yl]quinoline-8-carbonitrile]: 0.048 µM. In the case of `C[C@@H]1CN(c2ccc(C#N)c3ncccc23)C[C@H](CN2CC3(C2)CN(c2cnc4c(n2)CCNC4)CCO3)O1` [Example 50, 5-[(2R,6S)-2-methyl-6-[[8-(5,6,7,8-tetrahydropyrido[3,4-b]pyrazin-2-yl)-5-oxa-2,8-diazaspiro [3.5]nonan-2-yl]methyl]morpholin-4-yl] quinoline-8-carbonitrile], the IC50 worked out at 0.069 µM.

As to `C[C@@H]1CN(c2ccc(C#N)c3ncccc23)C[C@H](CN2CC3(C2)CN(c2ncc4c(n2)CCNC4)CCO3)O1` [Example 51, 5-[(2R,6S)-2-methyl-6-[[8-(5,6,7,8-tetrahydropyrido[4,3-d]pyrimidin-2-yl)-5-oxa-2,8-diazaspiro[3.5]nonan-2-yl]methyl]morpholin-4-yl]quinoline-8-carbonitrile], the IC50 was 0.134 µM.

In the case of `C[C@@H]1CN(c2ccc(C#N)c3ncccc23)C[C@H](CN2C[C@@H]3[C@@H](C2)OCCN3c2cnc3c(c2)CCNC3)O1` [Example 52, 5-[(2S,6R)-2-[[(4aR,7aR)-4-(5,6,7,8-tetrahydro-1,7-naphthyridin-3-yl)-2,3,4a,5,7,7a-hexahydropyrrolo[3,4-b][1,4]oxazin-6-yl]methyl]-6-methylmorpholin-4-yl]quinoline-8-carbonitrile], the IC50 came to 0.044 µM. With `C[C@@H]1CN(c2ccc(C#N)c3ncccc23)C[C@H](CN2CCN(c3cnc4c(c3)CNCC4)C(C)(C)C2)O1` [Example 56, 5-[(2S,6R)-2-[[3,3-dimethyl-4-(5,6,7,8-tetrahydro-1,6-naphthyridin-3-yl)piperazin-1-yl]methyl]-6-methyl-morpholin-4-yl]quinoline-8-carbonitrile] the figure was 0.168 µM; with `C[C@@H]1CN(c2ccc(C#N)c3ncccc23)C[C@H](CN2CCC(Nc3ncc4c(n3)CCNC4)C2)O1` (stereo partly drawn) [Example 57, 5-[(2R,6S)-2-methyl-6-[[3-(5,6,7,8-tetrahydropyrido [4,3-d]pyrimidin-2-ylamino)pyrrolidin-1-yl]methyl]morpholin-4-yl] quinoline-8-carbonitrile], 0.036 µM; with `COC1CNCc2ccc(N3CCN(C[C@H]4CN(c5ccc(C#N)c6ncccc56)C[C@@H](C)O4)CC3)cc21` (stereo partly drawn) [Example 58, 5-[(2S,6R)-2-[[4-(4-methoxy-1,2,3,4-tetrahydroisoquinolin-6-yl)piperazin-1-yl]methyl]-6-methyl-morpholin-4-yl]quinoline-8-carbonitrile], 0.092 µM.
